Test results from patent US5843917A, “5-Fluorouracil derivatives” (priority 1993, dated 1998).
Read-outs that look alike come from different tables or passages of the source.

Tests used:
DPD = assay: Protection of 5-FU from DPD catabolism by release of 5-EU from nucleosides (urinary recovery of 5-FU in rats); type: in vivo; details: rat; oral predose 0.03, 0.3 and 3.0 mg/kg, then 25 mg/kg 5-FU
Experimental: 5-FU and 5-EU bases and nucleosides were dissolved in deionized HPLC grade water immediately prior to dosing. […] 5-EU and 5-EU nucleosides were dosed to animals 0.5 hr prior to dosing with 5-FU and 5-FU nucleosides. Dosing was routinely performed between 11 am and 1 pm. An approximate volume of 300 μL was used for each dose. Rats were placed in individual Nalge metabolism cages, which separate urine and faeces, and continued on a 12 hr light/dark schedule post-dosing.
5 ml of a thoroughly mixed urine sample was filtered through a Millex GS 0.22 μm filter (Millipore, Bedford, Mass.) and frozen prior to HPLC analysis. 1 ml of the thawed primary filtered solution was diluted with 2 ml of water and particulates were removed from this diluted stock solution using a Centrifree micro partition system (Amicon Division, W. R. Grace and Co., Beverly Mass.). […]

[1] = literature reports; combination with 5-fluorouracil or its prodrug; cited from earlier work
uracil reductase = details: cited from earlier work
[2] = Urinary recovery of 5-FU in rats dosed with the succinate linked nucleoside; type: in vivo; details: rat; 25 mg/kg 5-FU equivalent
Experimental: (§1) 5-FU and 5-EU bases and nucleosides were dissolved in deionized HPLC grade water immediately prior to dosing. All animals were dosed once, p.o. via gastric gavage at the indicated mg/kg dose for each compound (See Results Section and Figures). 5-EU and 5-EU nucleosides were dosed to animals 0.5 hr prior to dosing with 5-FU and 5-FU nucleosides. Dosing was routinely performed between 11 am and 1 pm. An approximate volume of 300 μL was used for each dose. Rats were placed in individual Nalge metabolism cages, which separate urine and faeces, and continued on a 12 hr light/dark schedule post-dosing. Mice were treated post-dose in a similar manner with the exception that 5 mice were housed per cage.
Urine from each cage was collected into 0-24 hr and 24-48 hr post-dose fractions. […]
(§2) 5 ml of a thoroughly mixed urine sample was filtered through a Millex GS 0.22 μm filter (Millipore, Bedford, Mass.) and frozen prior to HPLC analysis. […] 100 μL of this solution was quantitated for 5-FU by HPLC on a Waters Associates System (Waters Associates, Milford, Mass.) equipped with a Waters 600E system controller, a Waters 600 solvent delivery system, a Waters model 712 WISP automated sample injector, a Waters 484 tuneable absorbance detector, and a Waters 991 photodiode array detector. […]
Rats were dosed 25 mg/kg 5-FU equivalent with the succinate linked nucleosides. […] 5-FU was not detected in the 24-48 hr urine.

[3] = Urinary recovery of 5-FU in mice dosed with 5-FU or the succinate linked nucleoside; type: in vivo; details: mouse; for dose excreted: urine, po, 5 mg/kg
Experimental: as §1
(§3) Urine from each cage was collected into 0-24 hr and 24-48 hr post-dose fractions. Cages were rinsed with deionized water prior to collection of each fraction. The combined volume of urine and rinse was brought to a standard volume with deionized water.
5-FU recovery in mouse urine was determined as above with three exceptions: a Phenomenex 5 μm Extrasil C-18 column (250mm×4.6 mm i.d.; Phenomenex, Torrance, Calif.) was used; an identical gradient with buffer A as aqueous 50 mM formic acid, pH 3.5, with 0.5% acetonitrile and buffer B as aqueous 50 mM formic acid, pH 3.5, with 60% acetonitrile was used; the standard curve was prepared by diluting known concentrations of 5-FU into undosed mouse urine and eluting with the latter described gradient and buffers, instead of isocratic conditions.
For these studies mice were dosed with either 5 mg/kg 5-FU or given an equivalent dose of 5-FU via the succinate linked nucleoside. The urinary recovery of 5-FU was measured in the presence and absence of 5-EU (Table 2). […] When mice were predosed with 5-EU followed by dosing with 5-FU, the urinary recovery of 5-FU was 50%. Mice dosed with the succinate linked nucleoside gave 25-30% urinary recovery of 5-FU available from the linked compound.

[4] = In vivo antitumor testing with s.c. murine Colon 38 carcinoma in C57BL/6 female mice; details: mouse, in vivo, sc, mice with s.c. Colon 38
Experimental: (§4) In vivo antitumor testing with murine Colon 38 was conducted in-house. C57BL/6 female mice were housed in sterile, polycarbonate, filter-capped Microisolator cages (Lab Products, Inc., Maywood, N.J.) containing sterile hardwood bedding. Mice were fed sterile rodent chow and filter-sterilised water ad libitum. All manipulations of these mice were conducted in laminar-flow biosafety hoods. Colon 38 carcinoma was obtained from the Development Therapeutics Program Tumour Repository. Mice were implanted s.c. with 70 mg tumour fragments using a number 13 trocar. There were 10 mice in the control group that received tumour implants without drug treatment. There were 5 mice in each group treated with the dose and compounds as described below. Treatment began on day 16 post tumour implant and compounds were dosed once/day for 9 days. 5-FU was dosed at 15, 20, 25, 30, and 40 mg/kg.. […] Tumour weights were calculated three times per week from measurements of tumour length and width. Antitumor activity was expressed as the days delay in tumour growth (T-C). T-C was calculated as the difference in the median of days for treated animals minus control animals for tumour mass to double twice post initial day of dosing (Day 16). Tumour-free survivors were not excluded from T-C calculations. Surviving mice were sacrificed after day 56.

Colon 38 = assay: as above
Experimental: as §4

[5] = Urinary recovery of 5-FU in rats for 5-FU and various 5-FU containing nucleosides; type: in vivo; details: rat, urine, po, p.o., read-out: % 5-FU Recovery 0-24 hr Urine (Average of Two Experiments)
Experimental: as §1, §3
as §2, with “detector. For quantitiation of 5-FU in rat urine, HPLC was performed on a 250 mm×4.6 mm YMC AQ-303 S-5 120A ODS analytical column (YMC, Morris Plains, N.J.) or on a Microsorb C18 analytical column with identical dimensions (Rainin Instrument Co., Woburn, Mass.).” for “detector.”
Plots of UV peak area vs 5-FU concentration were linear between 5 μM and 100 μM. The total urinary recovery of 5-FU was determined by multiplication of the nmoles of 5-FU determined from the standard curve by the dilution factor of 3 (above) and by the standard volume of urine collected. […]

**Q.** For `C#Cc1cn([C@H]2C[C@H](O)[C@@H](COP(=O)(O)O)O2)c(=O)[nH]c1=O` [2'-deoxy-5'-monophosphate of 5-EU, 1-(2-Deoxy-β-D-Erythro-Pentofuranosyl)-5-Ethynyluracil 5'-Monophosphate], which “dose response for urinary recovery of 5-FU” value (DPD) is on record?
**A.** A direct dose response for urinary recovery of 5-FU was observed

**Q.** For `O=c1[nH]c(=O)n([C@H]2C[C@H](O)[C@@H](CO)O2)cc1C=CBr` [5-(2-bromovinyl)-2'-deoxyuridine], which “effect on 5-fluorouracil metabolism and antitumour activity” value [1] is on record?
**A.** enhances the antitumour activity of 5-fluorouracil and 5-deoxy-5-fluorouridine

**Q.** With `O=c1[nH]cc(C=CBr)c(=O)[nH]1` [5-(2-bromovinyl)-uracil (BVU), 5-(2-bromovinyl)-uracil] as the compound, how does the “inhibition of dihydrothymidine dehydrogenase” value (uracil reductase; Cancer Research 46, 1094, 1986) read?
**A.** is an inhibitor of dihydrothymidine dehydrogenase

**Q.** What about the “effect on 5-fluorouracil metabolism and antitumour activity” value [1] of the same compound?
**A.** retards the metabolism of 5-fluorouracil and enhances its antitumour activity

**Q.** For `C#Cc1cn([C@H]2C[C@H](OC(=O)CCC(=O)O[C@H]3C[C@H](n4cc(F)c(=O)[nH]c4=O)O[C@@H]3CO)[C@@H](CO)O2)c(=O)[nH]c1=O` [Example 1, 5-Ethynyl-5"-fluoro-3',3"-O-succinylbis-(1-(2-deoxy-β-D-erythro-pentofuranosyl)uracil)], which “5-FU in the 24-48 hr urine” value [2] is on record?
**A.** not detected

**Q.** What about the “improvement of 5-FU urinary recovery by 5-EU predose” value ([3]; predosed with 5-EU then succinate linked nucleoside) of the same compound?
**A.** no improvement

**Q.** And the MTD ([4]; 5-FU and 5-EU equivalents, read-out: toxic at doses, as 5-FU and 5-EU equivalents)?
**A.** > 4 mg/kg

**Q.** What about the MTD ([4]; dose of the linked compound, once/day for 9 days, read-out: toxic at doses) of the same compound?
**A.** > 17.9 mg/kg

**Q.** And the “Tumour-free Survivors (Day 56)” value (Colon 38; 1 mg/kg 5-FU equivalent)?
**A.** 0/5

**Q.** What about the “Antitumour Activity T-C” value (Colon 38; 1 mg/kg 5-FU equivalent, once/day for 9 days) of the same compound?
**A.** 12.9 days

**Q.** And the “Tumour-free Survivors (Day 56)” value (Colon 38; 2 mg/kg 5-FU equivalent)?
**A.** 2/5

**Q.** And the “Antitumour Activity T-C” value (Colon 38; 2 mg/kg 5-FU equivalent, once/day for 9 days)?
**A.** > 27.9 days

**Q.** With `C#Cc1c[nH]c(=O)[nH]c1=O` [Example 5-EU, 5-ethynyluracil] as the compound, how does the “potency as an inactivator of uracil reductase relative to BVU” value (uracil reductase; relative to BVU) read?
**A.** 100 fold

**Q.** Which dose excreted at 24 h ([5]; 5 mg/kg, 5-FU 5 mg/kg, 5-EU predose 2 mg/kg) does the source give for `O=c1[nH]cc(F)c(=O)[nH]1` [Example 5-FU, 5-fluorouracil] here?
**A.** 52%

**Q.** What about the dose excreted at 24 h ([5]; 5 mg/kg, 5-FU 5 mg/kg, no predose) of the same compound?
**A.** < 5%

**Q.** What about the dose excreted at 24 h ([5]; 25 mg/kg, 5-FU 25 mg/kg, 5-EU predose 0.03 mg/kg) of the same compound?
**A.** 43 to 63%

**Q.** And the dose excreted ([3]; 5 mg/kg 5-FU, predosed with 5-EU, read-out: urinary recovery of 5-FU)?
**A.** 50%

**Q.** And the dose excreted ([3]; 5 mg/kg equivalent 5-FU, 5-EU predose 2 mg/kg, Table 2, read-out: Recovery 5-FU (%))?
**A.** 51%

**Q.** What about the dose excreted ([3]; 5 mg/kg equivalent 5-FU, no predose, Table 2, read-out: Recovery 5-FU (%)) of the same compound?
**A.** 0%

**Q.** And the “5-FU detection in the urine” value ([3]; 5 mg/kg 5-FU, without 5-EU predose)?
**A.** could not be detected

**Q.** What about the “Tumour-free Survivors (Day 56)” value (Colon 38; 25 mg/kg 5-FU equivalent) of the same compound?
**A.** 0/5

**Q.** And the “Antitumour Activity T-C” value (Colon 38; 25 mg/kg 5-FU equivalent, once/day for 9 days)?
**A.** 14.9 days

**Q.** And the “Tumour-free Survivors (Day 56)” value (Colon 38; 30 mg/kg 5-FU equivalent)?
**A.** 0/5

**Q.** And the “Antitumour Activity T-C” value (Colon 38; 30 mg/kg 5-FU equivalent, once/day for 9 days)?
**A.** 23.6 days

**Q.** What about the “Tumour-free Survivors (Day 56)” value (Colon 38; 40 mg/kg 5-FU equivalent) of the same compound?
**A.** 0/5

**Q.** And the “Antitumour Activity T-C (column entry Toxic)” value (Colon 38; 40 mg/kg 5-FU equivalent, once/day for 9 days)?
**A.** Toxic

**Q.** With `C#Cc1cn([C@@H]2O[C@H](CO)[C@@H](O)[C@@H]2O)c(=O)[nH]c1=O` [arabinoside of 5-EU] as the compound, how does the “dose response for urinary recovery of 5-FU” value (DPD) read?
**A.** A direct dose response for urinary recovery of 5-FU was observed
